# Experimental data taken from patent US7977056B2, “Methods of identifying stimulants for biogenic methane production from hydrocarbon-bearing formations” (Synthetic Genomics, Inc., priority 2008, dated 2011).
# Entries after “also recorded” stand apart in the source; their conditions may differ.
# System: defined microbial assemblage
# Test: Stimulation of methane production by a defined microbial assemblage grown on coal as sole carbon source
# Assay type: cell-based
# Conditions: for methane production: defined microbial assemblage, in vitro culture with coal as sole carbon source, after stimulation with the substance
# Protocol: The availability of a defined microbial assemblage producing methane from coal in vitro, as well as a suite of strains capable of aerobic coal degradation prompted laboratory experiments where various stimulants were tested for their effect on methane production.
# This degradation is stimulated by the addition of oxygen as reactant for the oxygenase-classes of enzymes present in some of the strains included in the DMA.
SMILES,methane production,methanogenesis (oxygen applied at higher than optimal levels)
"[HH] [H2, hydrogen]",increased methane production,
CN(C)C [trimethylamine],increased methane production,
CC(=O)O [acetate],increased methane production,
O=O [oxygen],greatest increase in methane production; also recorded: increased methane production,represses methanogenesis
OCC(O)CO [glycerol],increased methane production,
